In brackets after ≈: the same amount, converted by molar mass.
Assays:
[1] = tested on: antibiotic-resistant microorganisms; settings: J. Antibiotics, 24 (10) 711, (1971); cited from earlier work
[2] = tested on: E. coli HL-1629 (Kanamycin-resistant strain); assay: microbe, parasite or virus in culture; format: cell-based; settings: Escherichia coli, read-out: inhibitory zone diameter
[3] = tested on: Mycobacterium 607; assay: paper disk method, inhibitory zone diameter; format: cell-based; settings: Mycobacterium, 607, read-out: inhibitory zone diameter
[4] = tested on: Staphylococcus aureus 6538P; assay: paper disk method, inhibitory zone diameter; format: cell-based; settings: read-out: inhibitory zone diameter
[5] = tested on: Pseudomonas 1007; assay: paper disk method, inhibitory zone diameter; format: cell-based; settings: Pseudomonas, 1007, read-out: inhibitory zone diameter
[6] = tested on: E. coli K-12; assay: paper disk method, inhibitory zone diameter; format: cell-based; settings: Escherichia coli, K12, read-out: inhibitory zone diameter
[7] = tested on: Bacillus subtilis ATCC 6633; assay: paper disk method, inhibitory zone diameter; format: cell-based; settings: ATCC6633, read-out: inhibitory zone diameter
[8] = tested on: Klebsiella 7; assay: paper disk method, inhibitory zone diameter; format: cell-based; settings: Klebsiella, 7, read-out: inhibitory zone diameter
[9] = tested on: Klebsiella 6; assay: paper disk method, inhibitory zone diameter; format: cell-based; settings: Klebsiella, 6, read-out: inhibitory zone diameter
[10] = tested on: Enterococcus species C73-17; assay: antibacterial activity (Minimum Inhibitory Concentration); format: cell-based; settings: Enterococcus, C7317
[11] = tested on: E. coli C73-12; assay: as above; format: cell-based; settings: Escherichia coli, C7312
[12] = tested on: Enterococcus species C73-33; assay: as above; format: cell-based; settings: Enterococcus, C7333
[13] = tested on: Staphylococcus aureus C73-10; assay: as above; format: cell-based; settings: Staphylococcus aureus, C7310
[14] = tested on: Vibrio parahaemolyticus K-7; assay: as above; format: cell-based; settings: Vibrio parahaemolyticus, K7
[15] = tested on: Klebsiella pneumoniae; assay: as above; format: cell-based
[16] = tested on: Proteus morganii Kono; assay: as above; format: cell-based; settings: Morganella morganii
[17] = tested on: Staphylococcus albus PCI-1200A; assay: as above; format: cell-based; settings: Staphylococcus, PCI1200A
[18] = tested on: Bacillus subtilis ATCC 6633; assay: as above; format: cell-based; settings: Bacillus subtilis, ATCC6633
[19] = tested on: E. coli C73-1; assay: as above; format: cell-based; settings: Escherichia coli, C731
[20] = tested on: Staphylococcus aureus 209P JC-1; assay: as above; format: cell-based; settings: Staphylococcus aureus, 209P
[21] = tested on: Bacillus anthracis No. 119; assay: microbe, parasite or virus in culture; format: cell-based
[22] = tested on: Staphylococcus aureus C73-21; assay: antibacterial activity (Minimum Inhibitory Concentration); format: cell-based; settings: Staphylococcus aureus, C7321
[23] = tested on: Proteus species C73-23; assay: as above; format: cell-based
[24] = tested on: Proteus species C73-34; assay: as above; format: cell-based
[25] = tested on: Vibrio parahaemolyticus K-5; assay: as above; format: cell-based; settings: Vibrio parahaemolyticus, K5
[26] = tested on: Staphylococcus aureus Smith S-424; assay: as above; format: cell-based; settings: Staphylococcus aureus, SMITHS424
[27] = tested on: Vibrio parahaemolyticus K-3; assay: as above; format: cell-based; settings: Vibrio parahaemolyticus, K3
[28] = tested on: Staphylococcus aureus C73-4; assay: as above; format: cell-based; settings: Staphylococcus aureus, C734
[29] = tested on: Proteus species C73-25; assay: as above; format: cell-based
[30] = tested on: Proteus species C73-33; assay: as above; format: cell-based
[31] = tested on: Shigella dysenteriae Shigae; assay: microbe, parasite or virus in culture; format: cell-based
[32] = tested on: Staphylococcus aureus No. 26; assay: antibacterial activity (Minimum Inhibitory Concentration); format: cell-based; settings: Staphylococcus aureus, NO.26
[33] = tested on: E. coli C73-4; assay: as above; format: cell-based; settings: Escherichia coli, C734
[34] = tested on: Salmonella species C73-30; assay: as above; format: cell-based; settings: C7330

NC[C@@H]1CC[C@@H](N)[C@@H](O[C@H]2[C@H](O)[C@@H](O)[C@H](N)C[C@@H]2N)O1 [3',4'-deoxyneamine]
antimicrobial activities against antibiotic-resistant microorganisms [1]: exhibits antimicrobial activities against various antibiotic-resistant microorganisms

NC[C@H]1O[C@H](O[C@H]2[C@H](O)[C@@H](O)[C@H](N)C[C@@H]2N)[C@H](N)[C@@H](O)[C@@H]1O [Neamine, neamine, reference compound]
zone of inhibition at 1000 µg/mL [2]: 0 mm
zone of inhibition at 2000 µg/mL [2]: 12.3 mm
zone of inhibition at 62.5 µg/mL [3]: 0 mm
zone of inhibition at 125 µg/mL [3]: 0 mm
zone of inhibition at 250 µg/mL [3]: 14.8 mm
zone of inhibition at 500 µg/mL [3]: 20.4 mm
zone of inhibition at 1000 µg/mL [3]: 26.4 mm
zone of inhibition at 2000 µg/mL [3]: 32.5 mm
zone of inhibition at 7.8 µg/mL [4]: 0 mm
zone of inhibition at 15.6 µg/mL [4]: 0 mm
zone of inhibition at 31.2 µg/mL [4]: 0 mm
zone of inhibition at 62.5 µg/mL [4]: 10 mm
zone of inhibition at 125 µg/mL [4]: 13 mm
zone of inhibition at 250 µg/mL [4]: 15.3 mm
zone of inhibition at 500 µg/mL [4]: 18.3 mm
zone of inhibition at 1000 µg/mL [4]: 20.7 mm
zone of inhibition at 2000 µg/mL [4]: 22.8 mm
zone of inhibition at 2000 µg/mL [5]: 0 mm
zone of inhibition at 7.8 µg/mL [6]: 0 mm
zone of inhibition at 15.6 µg/mL [6]: 0 mm
zone of inhibition at 31.2 µg/mL [6]: 11.4 mm
zone of inhibition at 62.5 µg/mL [6]: 14.3 mm
zone of inhibition at 125 µg/mL [6]: 17.2 mm
zone of inhibition at 250 µg/mL [6]: 20.4 mm
zone of inhibition at 500 µg/mL [6]: 22.6 mm
zone of inhibition at 1000 µg/mL [6]: 25.2 mm
zone of inhibition at 2000 µg/mL [6]: 27.4 mm
zone of inhibition at 7.8 µg/mL [7]: 11.5 mm
zone of inhibition at 15.6 µg/mL [7]: 14 mm
zone of inhibition at 31.2 µg/mL [7]: 17 mm
zone of inhibition at 62.5 µg/mL [7]: 19.9 mm
zone of inhibition at 125 µg/mL [7]: 23 mm
zone of inhibition at 250 µg/mL [7]: 25 mm
zone of inhibition at 500 µg/mL [7]: 28.7 mm
zone of inhibition at 1000 µg/mL [7]: 31 mm
zone of inhibition at 2000 µg/mL [7]: 33.5 mm
zone of inhibition at 2000 µg/mL [8]: 0 mm
zone of inhibition at 2000 µg/mL [9]: 0 mm

NC[C@H]1O[C@H](O[C@H]2[C@H](O)[C@@H](O)[C@H](N)C[C@@H]2N)[C@H](N)[C@@H](O)[C@@H]1O [Neomycin A, reference compound]
MIC [10]: 100 µg/mL (≈ 310 µM)
MIC [11]: 12.5 µg/mL (≈ 38.8 µM)
MIC [12]: 12.5 µg/mL (≈ 38.8 µM)
MIC [13]: 3.13 µg/mL (≈ 9.71 µM)
MIC [14]: 50 µg/mL (≈ 155 µM)
MIC [15]: 12.5 µg/mL (≈ 38.8 µM)
MIC [16]: 12.5 µg/mL (≈ 38.8 µM)
MIC [17]: 0.78 µg/mL (≈ 2.42 µM)
MIC [18]: 1.56 µg/mL (≈ 4.84 µM)
MIC [19]: 25 µg/mL (≈ 77.6 µM)
MIC [20]: 0.78 µg/mL (≈ 2.42 µM)
MIC [21]: 12.5 µg/mL (≈ 38.8 µM)
MIC [22]: 0.78 µg/mL (≈ 2.42 µM)
MIC [23]: 25 µg/mL (≈ 77.6 µM)
MIC [24]: 25 µg/mL (≈ 77.6 µM)
MIC [25]: 50 µg/mL (≈ 155 µM)
MIC [26]: 1.56 µg/mL (≈ 4.84 µM)
MIC [27]: 1.56 µg/mL (≈ 4.84 µM)
MIC [28]: 3.13 µg/mL (≈ 9.71 µM)
MIC [29]: 6.25 µg/mL (≈ 19.4 µM)
MIC [30]: 100 µg/mL (≈ 310 µM)
MIC [31]: 12.5 µg/mL (≈ 38.8 µM)
MIC [32]: 3.13 µg/mL (≈ 9.71 µM)
MIC [33]: 25 µg/mL (≈ 77.6 µM)
MIC [34]: 25 µg/mL (≈ 77.6 µM)

From patent US4103082A, “Aminocyclitol derivatives and process for producing the same” (priority 1975, dated 1978)
